Experimental data taken from patent publication US20060122153A1, “Antineoplastic ether lipid compounds with modifications at the sn-2 carbon” (priority 2003, published 2006).
Several values for one entry are separate records, joined by “and”; a condition that tells them apart may be missing. Identical values can stand only once.

How the values were obtained:
[1] = tested on: NCI-H460; assay: NCI growth inhibition screen, non-small cell lung panel; assay type: cell-based, human; parameters: key: = means equivalent activity; + means that it appears to be significantly better (i.e., by ˜2x); < means it appears to be less active than ET18OCH3 (˜2x); a combination like =/+ or </+ means that activity is dependent upon the isomer; a combination like =/+ or </+ means that activity is dependent upon the isomer; conditions: NCI-H460, NS cell lung; from GI50s
Protocol: (§1) Candidates deemed suitable for in vivo testing were then synthesized in large scale quantities and some of this material was sent to the NCI's Developmental Therapeutics Program for a battery of growth inhibitory studies against various human tumor cell lines (60 cell lines, 9 different panels). The remainder of the material was used to assess in vivo efficacy using murine tumor models. Additionally, studies were conducted on the lead candidates to discern mechanism of action with particular emphasis on these agents apoptotic ability as measured by caspase 3 activity. The details (materials and methods) for these various assays are described further in the following discussion.
(§2) Ten compounds were also sent to NCI's Drug Discovery Program for screening against numerous human tumor cell lines (9 panels total: renal ovarian, colon, CNS, non-small cell lung, leukemia, breast, melanoma, and prostate). The data are shown in FIGS. 2a-i which also include data regarding D- and L-ET-18-OCH3 (listed as L-EL and D-EL in the figures). Upon examining the data, one is struck by how 1R and 1a′S standout in comparison to the other compounds, especially for the renal, ovarian, colon, and CNS panels.

[2] = tested on: A-549/ATCC; assay: as above; assay type: cell-based, human; parameters: key: = means equivalent activity; + means that it appears to be significantly better (i.e., by ˜2x); < means it appears to be less active than ET18OCH3 (˜2x); a combination like =/+ or </+ means that activity is dependent upon the isomer; a combination like =/+ or </+ means that activity is dependent upon the isomer; conditions: NS cell lung, from GI50s
Protocol: as §1, §2

[3] = tested on: UO-31; assay: NCI growth inhibition screen, renal panel; assay type: cell-based, human; parameters: key to Performance as compared to ET-18-O—CH3: = means equivalent activity; + means that it appears to be significantly better (i.e., by ˜2x); < means it appears to be less active than ET18OCH3 (˜2x); a combination like =/+ or </+ means that activity is dependent upon the isomer; a combination like =/+ or </+ means that activity is dependent upon the isomer; conditions: for Performance as compared to ET-18-O—CH3: UO-31, Renal, from GI50s; for activity compared to ET-18-OCH3 (in words): UO-31 cell line, NCI screen
Protocol: as §1, §2

[4] = tested on: PC-3; assay: NCI growth inhibition screen, prostate panel; assay type: cell-based, human; parameters: key: = means equivalent activity; + means that it appears to be significantly better (i.e., by ˜2x); < means it appears to be less active than ET18OCH3 (˜2x); a combination like =/+ or </+ means that activity is dependent upon the isomer; a combination like =/+ or </+ means that activity is dependent upon the isomer; conditions: PC-3, Prostate; from GI50s
Protocol: as §1, §2

[5] = tested on: DU145; assay: NCI growth inhibition screen, prostate panel; assay type: cell-based, human; parameters: key: = means equivalent activity; + means that it appears to be significantly better (i.e., by ˜2x); < means it appears to be less active than ET18OCH3 (˜2x); a combination like =/+ or </+ means that activity is dependent upon the isomer; a combination like =/+ or </+ means that activity is dependent upon the isomer; conditions: from GI50s
Protocol: as §1, §2

[6] = tested on: washed human red blood cells; assay: Hemolysis assay with washed human red blood cells; assay type: cell-based; conditions: washed human RBCs; for H10: concentration producing 10% hemolysis; for H50: concentration producing 50% hemolysis
Protocol: The blood was transferred from 1 EDTA tube to a 50 mL conical tissue culture tube and the volume was brought up to 50 mL with PBS.
The blood was centrifuged for 10 minutes at 1500 RPM. The supernatant was removed and the blood was resuspended up to 50 mL with PBS. Next the blood was centrifuged for 10 minutes at 1500 RPM.
The supernatant was removed, and 2.0 mL of packed red blood cells was carefully transferred, using positive displacement pipet, into a fresh conical tissue culture tube. Next, 48 mL PBS was added to achieve a 4% washed RBC solution.
Next, 25, 50, 100 and 200 uM stock solutions of test sample in phosphate buffered saline (PBS) as follows:
Next, 0.5 mL of 4% washed RBC was added to 0.5 mL test sample dilutions (in duplicate). The final concentration of test sample was 50% of working stock solution.
The samples were capped or sealed with Parafilm and the samples were gently mixed. […] The samples were centrifuged for 10 minutes at 1500 RPM. […] Absorbance was measured at 550 nm vs. a water blank. Next, H10 and H50 were determined by graphing Absorbance vs. Test Sample Concentration.

[7] = tested on: platelets in dog whole blood; assay: Platelet aggregation in whole blood (Chronolog whole blood aggregometer)
Protocol: Briefly, whole citrated blood is diluted 1:2 with sterile saline and placed in a warm chamber with a mini stir bar. An electronic probe, measuring electrical resistance, is inserted in the sample. The aggregometer is calibrated and the baseline is observed to detect any spontaneous aggregation. The test sample is added and allowed to run for at least 6 minutes. If the sample is an agonist the platelets will start to aggregate and stick to the electronic probe causing resistance across the electrodes to increase. This resistance, in ohms, is measured 6 minutes post addition of sample. The test samples are run at 25, 100, 200, 400 and 800 uM and compared to 100 uM L-ET-18-OCH3.
Collection of Blood Sample for in vitro Platelet Aggregation Testing: Venous blood is collected in 4.5 mL Vacutainer tubes containing 0.129 M sodium citrate using a 21G needle or larger. Blood is immediately mixed by gentle inversion 15-20 times and kept at room temperature. Dilution ratio is 1 to 9 (3.8% citrate solution:blood). One (2.0 mL) Vacutainer tube containing EDTA is also collected for platelet counts. Complete blood counts (CBC) are measured on the CDC Technologies Hemavet 1500 to ensure that the test subject's platelets are within normal range. Amy vials of hemolytic blood or blood containing any clots should be discarded. Platelet aggregation testing must be completed within 3 hours of blood collection. After this time the ability of platelets to aggregate decreases.
Dilutions were prepared in PBS or saline at 40× concentration. (25 uL test sample are added to 1000 uL diluted blood (1:40)).

[8] = tested on: MOLT-4; assay: NCI growth inhibition screen, leukemia panel; assay type: cell-based, human; parameters: key: = means equivalent activity; + means that it appears to be significantly better (i.e., by ˜2x); < means it appears to be less active than ET18OCH3 (˜2x); a combination like =/+ or </+ means that activity is dependent upon the isomer; a combination like =/+ or </+ means that activity is dependent upon the isomer; conditions: MOLT-4, Leukemia; from GI50s
Protocol: as §1, §2

[9] = tested on: CCRF-CEM; assay: NCI growth inhibition screen, leukemia panel; assay type: cell-based, human; parameters: key: = means equivalent activity; + means that it appears to be significantly better (i.e., by ˜2x); < means it appears to be less active than ET18OCH3 (˜2x); a combination like =/+ or </+ means that activity is dependent upon the isomer; a combination like =/+ or </+ means that activity is dependent upon the isomer; conditions: from GI50s
Protocol: as §1, §2

[10] = tested on: HL-60; assay: NCI growth inhibition screen, leukemia panel; assay type: cell-based, human; parameters: key: = means equivalent activity; + means that it appears to be significantly better (i.e., by ˜2x); < means it appears to be less active than ET18OCH3 (˜2x); a combination like =/+ or </+ means that activity is dependent upon the isomer; a combination like =/+ or </+ means that activity is dependent upon the isomer; conditions: HL-60, Leukemia; from GI50s
Protocol: as §1, §2

| Structure (SMILES) | Performance as compared to ET-18-O—CH3 [1] | Performance as compared to ET-18-O—CH3 [2] | Performance as compared to ET-18-O—CH3 [3] | activity compared to ET-18-OCH3 (in words) [3] | Performance as compared to ET-18-O—CH3 [4] | Performance as compared to ET-18-O—CH3 [5] | H10 [6] | H50 [6] | Relative Platelet Aggregation (Ohms) ([7]; 25 μM) | Relative Platelet Aggregation (Ohms) ([7]; 100 μM) | Relative Platelet Aggregation (Ohms) ([7]; 200 μM) | Relative Platelet Aggregation (Ohms) ([7]; 400 μM) | Relative Platelet Aggregation (Ohms) ([7]; 800 μM) | Performance as compared to ET-18-O—CH3 [8] | Performance as compared to ET-18-O—CH3 [9] | Performance as compared to ET-18-O—CH3 [10] | platelet aggregation response (in words) [7] |
| --- | --- | --- | --- | --- | --- | --- | --- | --- | --- | --- | --- | --- | --- | --- | --- | --- | --- |
| CCCCCCCCCCCCCCCCCCOC[C@@H](COP(=O)([O-])OCC[N+](C)(C)C)OS(C)(=O)=O [1a′S] | 0 | 0 | 64 | more active | 0 | 0 | 16.5 µM | 21.5 µM | 0 | 0 | 0 | 0 | 0 | 0 | 0 | 0 | – |
| CCCCCCCCCCCCCCCCCCOCC(COP(=O)([O-])OCC[N+](C)(C)C)OS(C)(=O)=O (stereo not drawn) [Compound 1aR] | = | = | + | more active | = | = | 16 µM and 13 µM | 21.5 µM and 17 µM | 0 | 0 | 0 | 0 | 0 | = | = | = | none of the “L” isomer compounds (1cR or 1aR) evoked an aggregatory response |
